Test results from DBAASP.
Converted amounts (≈) assume the structure as drawn. Each block holds one compound with its values, some of them ahead of it.

How the values were obtained:
Experiment in all cases: ≥ marks a high value that may be exact or a test limit, other limits are often not marked, values filed in µg/mL are converted to µM
[1] = test system: Staphylococcus aureus ATCC 43300
[2] = test system: Pseudomonas aeruginosa ATCC 27853
[3] = test system: Escherichia coli K88
[4] = test system: Staphylococcus aureus ATCC 25923
[5] = test system: Escherichia coli K99
[6] = test system: Candida parapsilosis CGMCC 2.3989
[7] = test system: Candida tropicalis CGMCC 2.1975
[8] = test system: Escherichia coli UB1005
[9] = test system: Salmonella enterica subsp. enterica serovar Pullorum ATCC 7913
[10] = test system: Escherichia coli 078
[11] = test system: Salmonella enterica subsp. enterica serovar Typhimurium C77-31
[12] = test system: Staphylococcus epidermidis ATCC 12228
[13] = test system: Salmonella enterica subsp. enterica serovar Typhimurium ATCC 14028
[14] = test system: Escherichia coli ATCC 25922
[15] = test system: Bordetella bronchiseptica CUN 11844-99
[16] = test system: Escherichia coli DSM 1116
[17] = test system: Bacillus subtilis DSM 347
[18] = test system: Staphylococcus xylosus DSM 20287
[19] = test system: Franconibacter helveticus DSM 18390
[20] = test system: Escherichia coli DH5alpha
[21] = test system: Staphylococcus xylosus
[22] = test system: Escherichia coli ATCC 27325

SMILES: CC[C@H](C)[C@H](NC(=O)[C@H](CCCN=C(N)N)NC(=O)[C@H](C)NC(=O)[C@H](C)N)C(=O)N[C@H](C(=O)N[C@@H](CC(C)C)C(=O)N[C@@H](CCCN=C(N)N)C(=O)N[C@@H](C)C(=O)N[C@@H](CCCN=C(N)N)C(=O)N[C@@H](Cc1ccccc1)C(=O)N[C@@H](CCCN=C(N)N)C(N)=O)[C@@H](C)CC [AARIILRARFR]
- MIC [1]: 2 µM (≈ 2.68 µg/mL)
- MIC [2]: 16 µM (≈ 21.5 µg/mL)
- MIC [3]: 2 µM (≈ 2.68 µg/mL)
- MIC [4]: 4 µM (≈ 5.37 µg/mL)
- MIC [5]: 2 µM (≈ 2.68 µg/mL)
- MIC [6]: 16 µM (≈ 21.5 µg/mL)
- MIC [7]: 4 µM (≈ 5.37 µg/mL)
- MIC [8]: 2 µM (≈ 2.68 µg/mL)
- MIC [9]: 4 µM (≈ 5.37 µg/mL)
- MIC [10]: 4 µM (≈ 5.37 µg/mL)
- MIC [11]: 4 µM (≈ 5.37 µg/mL)
- MIC [12]: 2 µM (≈ 2.68 µg/mL)
- MIC [13]: 4 µM (≈ 5.37 µg/mL)

SMILES: NCCCC[C@H](NC(=O)[C@H](Cc1ccc(O)cc1)NC(=O)[C@H](CCCN=C(N)N)NC(=O)[C@H](CCCN=C(N)N)NC(=O)CN)C(=O)N[C@@H](CCCCN)C(=O)N[C@@H](Cc1ccccc1)C(=O)N[C@@H](CCCCN)C(=O)N[C@@H](Cc1c[nH]c2ccccc12)C(=O)N[C@@H](CCCN=C(N)N)C(=O)N[C@@H](Cc1ccccc1)C(=O)N[C@@H](CCCN=C(N)N)C(=O)NCC(=O)N[C@@H](CCCN=C(N)N)C(=O)N[C@@H](Cc1ccccc1)C(=O)N[C@@H](Cc1c[nH]c2ccccc12)C(=O)N[C@@H](Cc1ccccc1)C(=O)N[C@@H](Cc1c[nH]c2ccccc12)C(=O)NCC(N)=O [GRRYKKFKWRFRGRFWFWG]
- MIC [4]: 12 µM (≈ 32 µg/mL)
- MIC [14]: 24 µM (≈ 64 µg/mL)
- MIC [15]: 6 µM (≈ 16 µg/mL)

SMILES: CC[C@H](C)[C@H](N)C(=O)N[C@@H](C)C(=O)N[C@@H](CCCCN)C(=O)N[C@H](C(=O)N[C@@H](C)C(=O)NCC(=O)N[C@@H](CCCCN)C(=O)N[C@H](C(=O)N[C@@H](C)C(=O)N[C@@H](CCCCN)C(=O)N[C@H](C(=O)N[C@@H](C)C(=O)NCC(=O)N[C@@H](CCCCN)C(=O)N[C@H](C(=O)N[C@@H](C)C(=O)N[C@@H](CCCCN)C(N)=O)[C@@H](C)CC)[C@@H](C)CC)[C@@H](C)CC)[C@@H](C)CC [IAKIAGKIAKIAGKIAK]
- MIC [16]: ≥ 75.6 µM
- MIC [17]: 9.44 µM (≈ 16 µg/mL)
- MIC [18]: ≥ 75.6 µM
- MIC [19]: ≥ 53.4 µM

SMILES: NCCCC[C@H](NC(=O)[C@H](CCCCN)NC(=O)[C@H](CCCCN)NC(=O)[C@H](Cc1ccccc1)NC(=O)[C@H](Cc1ccccc1)NC(=O)[C@H](Cc1ccccc1)NC(=O)[C@H](Cc1ccccc1)NC(=O)[C@H](Cc1ccccc1)NC(=O)[C@H](CCCCN)NC(=O)[C@H](CCCCN)NC(=O)[C@@H](N)CCCCN)C(=O)O [KKKFFFFFKKK]
- MIC [20]: 16 µM (≈ 24.4 µg/mL)
- MIC [21]: 4 µM (≈ 6.09 µg/mL)

SMILES: CC[C@H](C)[C@H](NC(=O)[C@H](CC(C)C)NC(=O)[C@H](CCCCN)NC(=O)[C@H](CCCN=C(N)N)NC(=O)[C@@H](N)CCCCN)C(=O)N[C@@H](CC(C)C)C(=O)N[C@@H](CCCCN)C(=O)N[C@@H](CCCN=C(N)N)C(=O)N[C@H](C(=O)N[C@@H](CC(C)C)C(=O)N[C@H](C(=O)N[C@@H](CCCCN)C(=O)N[C@@H](CCCN=C(N)N)C(=O)N[C@@H](CCCCN)C(=O)O)[C@@H](C)CC)[C@@H](C)CC [KRKLILKRILIKRK]
- MIC [20]: 16 µM (≈ 28.9 µg/mL)
- MIC [21]: 8 µM (≈ 14.5 µg/mL)

SMILES: CC(C)C[C@H](NC(=O)[C@H](CC(C)C)NC(=O)[C@H](CC(C)C)NC(=O)[C@H](CC(C)C)NC(=O)[C@H](CC(C)C)NC(=O)[C@H](CCCN=C(N)N)NC(=O)[C@H](CCCN=C(N)N)NC(=O)[C@@H](N)CCCN=C(N)N)C(=O)N[C@@H](CCCN=C(N)N)C(=O)N[C@@H](CCCN=C(N)N)C(=O)N[C@@H](CCCN=C(N)N)C(=O)O [RRRLLLLLRRR]
- MIC [20]: 8 µM (≈ 12.2 µg/mL)
- MIC [21]: 1 µM (≈ 1.52 µg/mL)

Further lines, results first:

- MIC [1]: 2 µM (≈ 2.77 µg/mL)
- MIC [2]: 16 µM (≈ 22.1 µg/mL)
- MIC [3]: 2 µM (≈ 2.77 µg/mL)
- MIC [4]: 2 µM (≈ 2.77 µg/mL)
- MIC [5]: 4 µM (≈ 5.54 µg/mL)
- MIC [6]: 4 µM (≈ 5.54 µg/mL)
- MIC [7]: 4 µM (≈ 5.54 µg/mL)
- MIC [8]: 4 µM (≈ 5.54 µg/mL)
- MIC [9]: 2 µM (≈ 2.77 µg/mL)
- MIC [10]: 2 µM (≈ 2.77 µg/mL)
- MIC [11]: 4 µM (≈ 5.54 µg/mL)
- MIC [12]: 2 µM (≈ 2.77 µg/mL)
- MIC [13]: 2 µM (≈ 2.77 µg/mL)
SMILES: CC[C@H](C)[C@H](NC(=O)[C@H](CCCN=C(N)N)NC(=O)[C@H](CC(C)C)NC(=O)[C@@H](NC(=O)[C@@H](NC(=O)[C@H](CCCN=C(N)N)NC(=O)[C@H](C)NC(=O)[C@H](C)N)[C@@H](C)CC)[C@@H](C)CC)C(=O)N[C@@H](CCCN=C(N)N)C(=O)N[C@@H](Cc1ccccc1)C(=O)N[C@@H](CCCN=C(N)N)C(N)=O [AARIILRIRFR]

- MIC [16]: 1.94 µM (≈ 4 µg/mL)
- MIC [17]: 1.37 µM (≈ 2.83 µg/mL)
- MIC [18]: 1.37 µM (≈ 2.83 µg/mL)
- MIC [19]: 1.37 µM (≈ 2.83 µg/mL)
SMILES: CC[C@H](C)[C@H](N)C(=O)N[C@@H](C)C(=O)NCC(=O)N[C@@H](CCCCN)C(=O)N[C@H](C(=O)N[C@@H](C)C(=O)N[C@@H](CCCCN)C(=O)N[C@H](C(=O)N[C@@H](C)C(=O)NCC(=O)N[C@@H](CCCCN)C(=O)N[C@H](C(=O)N[C@@H](C)C(=O)N[C@@H](CCCCN)C(=O)N[C@H](C(=O)N[C@@H](C)C(=O)NCC(=O)N[C@@H](CCCCN)C(=O)N[C@H](C(=O)N[C@@H](C)C(=O)N[C@@H](CCCCN)C(N)=O)[C@@H](C)CC)[C@@H](C)CC)[C@@H](C)CC)[C@@H](C)CC)[C@@H](C)CC [IAGKIAKIAGKIAKIAGKIAK]

- MIC [16]: 0.842 µM (≈ 2 µg/mL)
- MIC [17]: 0.842 µM (≈ 2 µg/mL)
- MIC [18]: 0.842 µM (≈ 2 µg/mL)
- MIC [19]: 0.842 µM (≈ 2 µg/mL)
SMILES: CC[C@H](C)[C@H](NC(=O)[C@H](CCCCN)NC(=O)CNC(=O)[C@H](C)NC(=O)[C@@H](NC(=O)[C@H](CCCCN)NC(=O)[C@H](C)NC(=O)[C@@H](NC(=O)[C@H](CCCCN)NC(=O)CNC(=O)[C@H](C)NC(=O)[C@@H](NC(=O)[C@H](CCCCN)NC(=O)[C@H](C)NC(=O)[C@@H](NC(=O)[C@H](CCCCN)NC(=O)CNC(=O)[C@H](C)NC(=O)[C@@H](NC(=O)[C@H](CCCCN)NC(=O)[C@H](C)NC(=O)[C@@H](NC(=O)[C@@H](N)CCCCN)[C@@H](C)CC)[C@@H](C)CC)[C@@H](C)CC)[C@@H](C)CC)[C@@H](C)CC)[C@@H](C)CC)C(=O)N[C@@H](C)C(N)=O [KIAKIAGKIAKIAGKIAKIAGKIA]

- MIC [16]: 6.68 µM (≈ 11.3 µg/mL)
- MIC [17]: 6.68 µM (≈ 11.3 µg/mL)
- MIC [18]: ≥ 37.8 µM
- MIC [19]: 9.44 µM (≈ 16 µg/mL)
SMILES: CC[C@H](C)[C@H](NC(=O)[C@H](CCCCN)NC(=O)CNC(=O)[C@H](C)NC(=O)[C@@H](NC(=O)[C@H](CCCCN)NC(=O)[C@H](C)NC(=O)[C@@H](NC(=O)[C@H](CCCCN)NC(=O)CNC(=O)[C@H](C)NC(=O)[C@@H](NC(=O)[C@H](CCCCN)NC(=O)[C@H](C)NC(=O)[C@@H](NC(=O)[C@@H](N)CCCCN)[C@@H](C)CC)[C@@H](C)CC)[C@@H](C)CC)[C@@H](C)CC)C(=O)N[C@@H](C)C(N)=O [KIAKIAGKIAKIAGKIA]

- MIC [20]: ≥ 64 µM
- MIC [21]: ≥ 64 µM
SMILES: CC[C@H](C)[C@H](NC(=O)[C@H](CCCCN)NC(=O)[C@H](CCCN=C(N)N)NC(=O)[C@@H](N)CCCCN)C(=O)N[C@@H](CCCCN)C(=O)N[C@@H](CCCN=C(N)N)C(=O)N[C@@H](CCCCN)C(=O)O [KRKIKRK]

- MIC [22]: 6 µM (≈ 14.7 µg/mL)
SMILES: CC(C)C[C@H](NC(=O)CNC(=O)[C@H](C)NC(=O)[C@H](CCCN=C(N)N)NC(=O)[C@H](CO)NC(=O)[C@H](CO)NC(=O)[C@H](CCCN=C(N)N)NC(=O)[C@@H](N)[C@@H](C)O)C(=O)N[C@@H](CCC(N)=O)C(=O)N[C@@H](Cc1c[nH]c2ccccc12)C(=O)N[C@@H](C)C(=O)N[C@H](C(=O)NCC(=O)N[C@@H](CCCN=C(N)N)C(=O)N[C@H](C(=O)N[C@@H](Cc1cnc[nH]1)C(=O)N[C@@H](CCCN=C(N)N)C(=O)N[C@@H](CC(C)C)C(=O)N[C@@H](CC(C)C)C(=O)N[C@@H](CCCN=C(N)N)C(=O)N[C@@H](CCCCN)C(=O)O)C(C)C)C(C)C [TRSSRAGLQWAVGRVHRLLRK]
